The structures appear in SMILES notation. Numbered stars: 1 amine (or outer) side, 2 acyl side, 3 side chain; on linkers, the order of the positions; unused ones are H or OH. Square brackets hold non-standard residues; d marks the D form. Peptide text beside a SMILES is read from it. * marks the point of attachment. X3 = COc1cc(CC(=O)[*:2])ccc1N[*:1]; X2 = O=C(Cc1ccc(N[*:1])cc1)[*:2]; NH(2-F-phenyl) = Fc1ccccc1N*; Boc = CC(C)(C)OC(=O)*; CO = O=C([*:1])[*:2]; NHBn = c1ccc(CN*)cc1; NHPh = c1ccc(N*)cc1 A value given as a limit tells only on which side of the number the result lay.

T1 sequence (P13612 34-1032): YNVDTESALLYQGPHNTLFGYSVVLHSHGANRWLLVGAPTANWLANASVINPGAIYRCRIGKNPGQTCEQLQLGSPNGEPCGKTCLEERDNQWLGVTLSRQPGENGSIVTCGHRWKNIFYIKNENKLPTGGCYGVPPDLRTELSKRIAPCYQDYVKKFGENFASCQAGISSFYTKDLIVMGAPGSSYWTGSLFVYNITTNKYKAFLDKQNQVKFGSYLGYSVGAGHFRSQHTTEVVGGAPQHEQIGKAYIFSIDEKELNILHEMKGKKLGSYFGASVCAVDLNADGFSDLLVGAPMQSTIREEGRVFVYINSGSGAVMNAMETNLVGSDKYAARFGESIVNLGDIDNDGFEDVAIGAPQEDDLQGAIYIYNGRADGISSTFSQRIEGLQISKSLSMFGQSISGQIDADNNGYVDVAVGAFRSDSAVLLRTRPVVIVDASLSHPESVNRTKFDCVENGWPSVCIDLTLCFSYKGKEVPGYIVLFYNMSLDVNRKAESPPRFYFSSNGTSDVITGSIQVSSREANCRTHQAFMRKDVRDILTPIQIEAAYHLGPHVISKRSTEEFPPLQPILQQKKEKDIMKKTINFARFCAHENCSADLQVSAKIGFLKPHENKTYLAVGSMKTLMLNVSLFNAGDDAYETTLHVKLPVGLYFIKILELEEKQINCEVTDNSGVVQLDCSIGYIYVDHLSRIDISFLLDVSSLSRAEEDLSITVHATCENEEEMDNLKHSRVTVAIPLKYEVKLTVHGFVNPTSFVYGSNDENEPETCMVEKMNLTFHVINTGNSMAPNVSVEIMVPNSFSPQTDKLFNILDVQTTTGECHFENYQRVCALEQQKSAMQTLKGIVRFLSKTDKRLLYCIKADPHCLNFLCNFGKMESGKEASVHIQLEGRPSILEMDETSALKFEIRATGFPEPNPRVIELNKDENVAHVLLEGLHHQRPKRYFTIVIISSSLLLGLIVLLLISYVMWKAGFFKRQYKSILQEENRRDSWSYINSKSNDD
T1 sequence (P05556 21-798): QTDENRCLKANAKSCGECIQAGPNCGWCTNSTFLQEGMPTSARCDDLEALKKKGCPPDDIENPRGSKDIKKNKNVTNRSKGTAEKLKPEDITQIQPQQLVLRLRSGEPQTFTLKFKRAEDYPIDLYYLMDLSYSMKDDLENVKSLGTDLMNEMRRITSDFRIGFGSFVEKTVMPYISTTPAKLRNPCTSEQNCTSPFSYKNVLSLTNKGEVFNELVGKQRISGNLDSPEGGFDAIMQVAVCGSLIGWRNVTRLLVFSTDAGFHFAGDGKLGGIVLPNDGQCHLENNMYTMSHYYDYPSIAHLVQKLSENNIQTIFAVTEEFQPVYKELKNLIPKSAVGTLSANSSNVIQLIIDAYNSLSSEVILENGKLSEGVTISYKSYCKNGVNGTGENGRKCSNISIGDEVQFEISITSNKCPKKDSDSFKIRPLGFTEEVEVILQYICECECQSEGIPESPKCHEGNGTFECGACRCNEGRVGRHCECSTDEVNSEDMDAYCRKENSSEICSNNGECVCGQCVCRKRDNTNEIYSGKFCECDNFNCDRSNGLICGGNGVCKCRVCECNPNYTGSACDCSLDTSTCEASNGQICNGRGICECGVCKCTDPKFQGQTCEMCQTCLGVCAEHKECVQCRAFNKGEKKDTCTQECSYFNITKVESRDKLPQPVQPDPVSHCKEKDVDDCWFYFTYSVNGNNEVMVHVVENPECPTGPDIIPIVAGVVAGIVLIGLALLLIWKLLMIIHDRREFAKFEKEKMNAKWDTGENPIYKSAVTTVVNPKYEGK

One experiment addresses T1, VLA4 (Homo sapiens, UniProt P05556+P13612).
T1 construct: endogenous in cells; host or cells: Ramos cells
Kind of experiment: Inhibition of VLA4-dependent adhesion of Ramos cells to BSA-CS1. The experiment is classed as cell-based.
Details: not given
From the text: For example, the cell adhesion inhibitory activity of these compounds may be measured by determining the concentration of inhibitor required to block the binding of VLA-4-expressing cells to fibronectin- or CS1-coated plates. In this assay microtiter wells are coated with either fibronectin (containing the CS1-sequence) or CS-1. If CS-1 is used, it must be conjugated to a carrier protein, such as bovine serum albumin, in order to bind to the wells. Once the wells are coated, varying concentrations of the test compound are then added together with appropriately labelled, VLA-4-expressing cells. Alternatively, the test compound may be added first and allowed to incubate with the coated wells prior to the addition of the cells. The cells are allowed to incubate in the wells for at least 30 minutes. Following incubation, the wells are emptied and washed. Inhibition of binding is measured by quantitating the fluorescence or radioactivity bound to the plate for each of the various concentrations of test compound, as well as for controls containing no test compound.
VLA-4-expressing cells that may be utilized in this assay include Ramos cells, Jurkat cells, A375 melanoma cells, as well as human peripheral blood lymophocytes (PBLs). The cells used in this assay may be fluorescently or radioactively labelled.
This assay was used to assess the potency of VLA4-directed inhibitory compounds of this invention. 1.
We dissolved BSA-SMCC (Pierce Chemical, Rockford, Ill.; Catalog #77115) in H2O at a concentration of 10 mg/mL. [SEQ ID NO:4]: […](“Cys-Tyr-CS1 peptide”), which we synthesized by conventional solid phase chemistry and purified by HPLC, was dissolved in 10 mM HEPES pH 5, 50 mM NaCl and 0.1 mM EDTA also at a concentration of 10 mg/mL. We then mixed 500 μL of BSA-SMCC, 250 μL of Cys-Tyr-CS1 peptide and 75 μL of 1 mM HEPES pH 7.5 and allowed the conjugation reaction to proceed for 30 minutes. We stopped the reaction by adding 1 μL of beta-mercaptoethanol. Samples were analyzed for cross-linking by SDS-PAGE.
We coated the wells of a Linbro titertek polystyrene 96-well flat bottom plate (Flow Laboratories, Maclean, Va.; catalog #76-231-05) with 100 μL of the above-described BSA-CS1 solution diluted to 1 μg/mL in 0.05 M NaHCO3 (15 mM NaHCO3, 35 mM Na2CO3) pH 9.2. Some wells were not coated with CS1 in order to assess non-specific cell binding (NSB). The plate was then incubated overnight at 4° C.
Following this incubation, the contents of the wells were removed by inverting and blotting the plate. All of the wells were then blocked with 100 μL of 1% BSA in PBS, 0.02% NaN3, for a minimum of one hour at room temperature.
Ramos cells are grown, maintained and labelled in RPMI 1640 culture medium containing 1% BSA. Just prior to running the assay, we added 2′, 7′-bis-(2-carboxyethyl)-5(and -6)carboxyfluorescein acetoxymethyl ester (“BCECF-AM”; Molecular Probes Inc., Eugene, Oregon; catalog #B-1150) to a final concentration of 2 μM to a culture of Ramos cells (4×10^6 cells/mL). We incubated the cells for 20 minutes at 37° C.
Following labelling, the cells were washed twice in assay buffer (24 mM TRIS, 137 mM NaCl, 2.7 mM KCl, pH 7.4, containing 0.1 BSA and 2mM glucose) to remove any cations originating from the culture medium. The cells were then resuspended in assay buffer to 4×10^6 cells/mL and 2 mM MnCl2 was added to upregulate VLA4 on the surface of the cells.
Immediately prior to running the assay, we removed the BSA blocking solution from the 96-well plates and washed the wells with 100 μL of assay buffer. We then added to each well 25 μL of test cell adhesion inhibitory compound at 2×the final concentration and 25 μL of the labelled Ramos cells. […] Each concentration of compound was tested in triplicate. The compound and cells are allowed to incubate for 30 minutes at room temperature.
For the compound `CC(C)C[C@H](NC(=O)C1CCc2ccccc2N1)C(=O)N[C@@H](CC(=O)O)C(=O)N[C@H](C(=O)N1CCC(c2ccccc2)CC1)C(C)C` (some centres unmarked) [Compound 115], the IC50 (in general, the midpoint of a concentration-inhibition curve) was above 10 µM.

Staying with this experiment, now noted: Ramos cells, BSA-CS1 coated wells, 2 mM MnCl2, 30 minutes at room temperature; read-out: IC50.
Turning to `CC(C)CNC(=O)[C@H](CC(=O)O)NC(=O)[C@H](CC(C)C)NC(=O)CCc1ccccc1` [Compound 162], the IC50 was above 10 µM.

For the compound `CC(C)CNC(=O)[C@H](CC(=O)O)NC(=O)[C@H](CC(C)C)NC(=O)CNC(=O)c1ccccc1` [Compound 163], the IC50 was above 10 µM.

For the compound `CC(C)[C@H](NC(=O)[C@H](CC(=O)O)NC(=O)C1Cc2ccccc2CN1)C(=O)O` (some centres unmarked) [Compound 71] (HELM PEPTIDE1{[O=C(C1Cc2ccccc2CN1)[*:2]].D.V}$$$$V2.0), the IC50 is above 10 µM.

As for `CC(C)C[C@H](NC(=O)[C@H](CC(=O)O)NC(=O)c1cc2ccccc2cn1)C(=O)O` [Compound 89], the IC50 was above 10 µM.

As for `O=C(O)CNC(=O)[C@@H]1CCCN1C(=O)[C@H](CC(=O)O)NC(=O)Cc1ccccc1` [Compound 136] (HELM PEPTIDE1{[O=C(Cc1ccccc1)[*:2]].D.P.G}$$$$V2.0), the IC50 is above 10 µM.

Take `CC(C)C[C@H](NC(=O)Cc1ccc(NC(=O)Nc2ccccc2)cc1)C(=O)N[C@@H](CC(=O)O)C(=O)N[C@H](C(=O)N1CCC[C@H]1C(=O)O)C(C)C` [Compound 145] ({NHPh-CO}-[X2]LDVP-OH): the IC50 was below 0.05 µM.

Regarding `Cc1ccccc1NC(=O)Nc1ccc(CC(=O)N[C@H](C(=O)N[C@@H](CC(=O)O)C(=O)N[C@@H](CC(C)C)C(N)=O)[C@@H](C)O)cc1` [Compound 253], the IC50 was below 0.05 µM.

`Cc1ccccc1NC(=O)Nc1ccc(CC(=O)N[C@@H](CC(C)C)C(=O)N[C@@H](CC(=O)O)C(=O)N[C@H](C(N)=O)[C@@H](C)O)cc1` [Compound 235]: the IC50 is below 0.05 µM.

For `CC(C)C[C@H](NC(=O)CCCCc1ccccc1)C(=O)N[C@@H](CC(=O)O)C(=O)N[C@H](C(=O)O)C(C)C` [Compound 98], the IC50 is above 10 µM.

As for `CC(C)C[C@H](NC(=O)c1cc2ccccc2cn1)C(=O)N[C@@H](CC(=O)O)C(=O)O` [Compound 12], the IC50 is above 10 µM.

Regarding `CC[C@H](C)[C@H](NC(=O)[C@H](CC(=O)O)NC(=O)[C@@H]1CCCN1C(=O)Cc1ccc(NC(=O)Nc2ccccc2C)cc1)C(N)=O` [Compound 244], the IC50 is below 0.05 µM.

Consider `CC(C)C[C@H](NC(=O)c1ccc2ccccc2n1)C(=O)N[C@@H](CC(=O)O)C(=O)N[C@H](C(=O)N1CCOCC1)C(C)C` [Compound 175], for which the IC50 lay within 0.05 to 10 µM.

Consider `CC(C)CC(NC(=O)Cc1ccccc1)C(=O)NC(CC(=O)O)C(=O)NC(C(=O)N1CCCCC1C(=O)O)C(C)C` (centres unmarked) [Compound 42], for which the IC50 fell in the range of 0.05 to 10 µM.

Regarding `CC(C)C[C@H](NC(=O)c1ccc2ccccc2n1)C(=O)N[C@@H](CC(=O)O)C(=O)NCCC(C)(C)C` [Compound 198], the IC50 is above 10 µM.

Take `COC(=O)[C@@H](NC(=O)[C@H](CC(=O)O)NC(=O)[C@H](CC(C)C)N(C)C(=O)CCc1ccc(O)cc1)C(C)C` [Compound 18]: the IC50 lay in the range of 0.05 to 10 µM.

In the case of `COc1cc(CC(=O)N[C@@H](CC(C)C)C(=O)N[C@@H](CC(=O)O)C(=O)N[C@H](C(=O)N2CCC[C@H]2C(N)=O)C(C)C)ccc1NC(=O)Nc1ccccc1` [Compound 147] ({NHPh-CO}-[X3]LDVP-NH2), the IC50 was below 0.05 µM.

Turning to `CNC(=O)[C@@H](NC(=O)[C@H](CC(=O)O)NC(=O)[C@H](CC(C)C)NC(=O)c1ccc2ccccc2n1)[C@@H](C)OC` [Compound 59], the IC50 lay in the range of 0.05 to 10 µM.

In the case of `COC(=O)[C@@H](NC(=O)[C@H](CC(=O)O)NC(=O)[C@H](CC(C)C)N(C)C(=O)CCCc1ccccc1)C(C)C` [Compound 143], the half-maximal inhibitory concentration (IC50) was above 10 µM.

As for `CC(C)C[C@H](NC(=O)c1ccccc1)C(=O)N[C@@H](CC(=O)O)C(=O)N[C@H](C(=O)O)C(C)C` [Compound 105] (HELM PEPTIDE1{[O=C(c1ccccc1)[*:2]].L.D.V}$$$$V2.0), the IC50 was above 10 µM.

As for `C=CCC(CCc1ccccc1)C(=O)N[C@H](C(=O)N1CCC[C@H]1C(=O)O)C(C)C` (some centres unmarked) [Compound 151], the IC50 was above 10 µM.

`CNC(=O)[C@@H](NC(=O)[C@H](CC(=O)O)NC(=O)[C@H](CC(C)C)NC(=O)NCc1ccccc1)C(C)C` [Compound 47] ({NHBn-CO}-Leu-Asp-Val-NHMe): the IC50 is above 10 µM.

`COC(=O)[C@@H](NC(=O)[C@H](CC(=O)O)NC(=O)[C@H](CC(C)C)NC(=O)c1cc2ccccc2cn1)C(C)C` [Compound 156]: the IC50 is 0.05 to 10 µM.

Turning to `CC(C)C[C@H](NC(=O)c1ccc2ccccc2n1)C(=O)N[C@@H](CC(=O)OCc1ccccc1)C(=O)N[C@H](C(=O)O)C(C)C` [Compound 159], the IC50 is above 10 µM.

Regarding `CCCCCCNC(=O)[C@@H](NC(=O)[C@H](CC(=O)O)NC(=O)[C@H](CC(C)C)NC(=O)CCc1ccc(O)cc1)C(C)C` [Compound 119], the IC50 was above 10 µM.

As to `CNC(=O)[C@@H](NC(=O)[C@H](CC(=O)O)NC(=O)[C@H](CC(C)C)N(C)C(=O)Cc1ccc(O)cc1)C(C)C` [Compound 188], the IC50 was above 10 µM.

For the compound `CC[C@H](C)[C@H](NC(=O)[C@H](CC(=O)O)NC(=O)[C@@H](NC(=O)Cc1ccc(NC(=O)Nc2ccccc2C)cc1)[C@@H](C)O)C(N)=O` [Compound 255], the IC50 is below 0.05 µM.

Regarding `CC(C)C[C@H](NC(=O)Cc1ccc(NC(=O)Nc2ccccc2)cc1)C(=O)N[C@@H](CC(=O)O)C(=O)N[C@H](C(=O)N1CCC[C@H]1C(=O)NCc1ccccc1)C(C)C` [Compound 326] ({NHPh-CO}-[X2]LDVP-NHBn), the IC50 is below 0.05 µM.

As to `COC(=O)[C@@H](NC(=O)[C@H](CC(=O)O)NC(=O)[C@H](CC(C)C)NC(=O)C1Cc2ccccc2CN1)C(C)C` (some centres unmarked) [Compound 154] (HELM PEPTIDE1{[O=C(C1Cc2ccccc2CN1)[*:2]].L.D.V.[CO[*:1]]}$$$$V2.0), the IC50 is above 10 µM.

As for `CC(C)C[C@H](NC(=O)C1CCOC1)C(=O)N[C@@H](CC(=O)O)C(=O)N[C@H](C(=O)O)C(C)C` (some centres unmarked) [Compound 79], the IC50 is above 10 µM.

As to `CC(C)C[C@H](NC(=O)c1ccc2ccccc2n1)C(=O)N[C@@H](CC(=O)O)C(=O)N[C@H](C(=O)Nc1ccccc1)C(C)C` [Compound 125], the IC50 was above 10 µM.

`CC(C)CC(NC(=O)C(Cc1ccc(O)cc1)NC(=O)OC(C)(C)C)C(=O)NC(CC(=O)O)C(=O)NC(C(=O)O)C(C)C` (centres unmarked) [Compound 66] (Boc-YLDV-OH; configuration not given here): the IC50 was above 10 µM.

On to `CC(C)C[C@H](NC(=O)c1ccccn1)C(=O)N[C@@H](CC(=O)O)C(=O)N[C@H](C(=O)O)C(C)C` [Compound 77], for which the IC50 was above 10 µM.

Turning to `Cc1ccccc1NC(=O)Nc1ccc(CC(=O)N[C@@H](CCC(=O)O)C(=O)N[C@@H](CC(=O)O)C(=O)N[C@@H](CC(=O)O)C(N)=O)cc1` [Compound 263], the IC50 was below 0.05 µM.

Take `CC(C)C[C@H](NC(=O)Cc1ccc(NC(=O)Nc2ccccc2F)cc1)C(=O)N[C@@H](CC(=O)O)C(=O)N[C@H](C(=O)N1CCC[C@H]1C(=O)O)C(C)C` [Compound 347] ({NH(2-F-phenyl)-CO}-[X2]LDVP-OH): the IC50 was below 0.05 µM.

Consider `CSCC[C@H](NC(=O)Cc1ccc(NC(=O)Nc2ccccc2C)cc1)C(=O)N[C@@H](CC(=O)O)C(=O)N[C@H](C(N)=O)C(C)C` [Compound 221], for which the IC50 was below 0.05 µM.

On to `CC(C)C[C@H](NC(=O)c1cc2ccccc2[nH]1)C(=O)N[C@@H](CC(=O)O)C(=O)N[C@H](C(=O)O)C(C)C` [Compound 99], for which the IC50 was above 10 µM.

As to `CC(C)CNC(=O)[C@H](CC(=O)O)NC(=O)[C@@H]1CCCN1C(=O)CCc1ccc(O)cc1` [Compound 331], the IC50 is above 10 µM.

The values are drawn from patent US6596687B1, “Cell adhesion inhibitors” (Biogen, Inc., priority 1995, dated 2003).
